Results published in ChEMBL document CHEMBL4715887, “Synthesis of novel isoflavone/benzo-δ-sultam hybrids as potential anti-inflammatory drugs” (Bioorg Med Chem Lett, 2021).
Activity calls are given as the source filed them. The rule behind the calls is not given here.

Legend:
[1] = test system: BV-2; assay: Antiinflammatory activity in mouse BV2 cells assessed as LPS-induced NO-production at 20 uM after 24 hrs by Griess reagent based assay relative to control; type: functional
[2] = test system: BV-2; assay: Antiinflammatory activity in mouse BV2 cells assessed as reduction in LPS-induced NO-production at 20 uM after 24 hrs by Griess reagent based assay relative to control; type: functional
[3] = test system: BV-2; assay: Antiinflammatory activity in mouse BV2 cells assessed as LPS-induced TNFalpha-production at 20 uM after 24 hrs by Griess reagent based assay relative to control; type: functional
[4] = test system: BV-2; assay: Cytotoxicity against mouse BV2 cells assessed as reduction in cell viability at 20 uM after 24 hrs by XTT assay; type: cell-based; conditions: bv-2, 24 h
[5] = Cytotoxicity against mouse BV2 cells assessed as cell viability at 20 uM after 24 hrs by XTT assay relative to control; type: cell-based, BV-2; conditions: read-out: Activity

SMILES: COc1ccc(CN2C(c3coc4cc(OC)ccc4c3=O)=Cc3ccccc3S2(=O)=O)cc1
- Activity [1]: 41%
- inhibition [2]: Active
- Activity [3]: 34%
- Activity [4]: Non-Toxic

SMILES: COc1ccc2c(=O)c(-c3ccc(NS(=O)(=O)c4ccccc4Br)cc3)coc2c1
- Activity [1]: 26%
- inhibition [2]: Active
- Activity [4]: Non-Toxic

SMILES: COc1ccc2c(=O)c(-c3ccc(N)cc3)coc2c1
- Activity [1]: 42%
- Activity [3]: Active
- Activity [4]: Non-Toxic

SMILES: COc1ccc2c(=O)c(-c3ccc([N+](=O)[O-])cc3)coc2c1
- inhibition [2]: inactive
- Activity [4]: Non-Toxic

SMILES: COc1ccc(-c2coc3cc(O)cc(O)c3c2=O)cc1 [BIOCHANIN]
- viability at 24 h, 20 µM [5]: 76%
- inhibition at 20 µM [2]: 41%
- Activity [3]: 33%
- Activity [4]: Non-Toxic

SMILES: COc1ccc2c(=O)c(C3=Cc4ccccc4S(=O)(=O)N3)coc2c1
- Activity [1]: 24%
- inhibition [2]: Active
- Activity [4]: Toxic

SMILES: COc1ccc2c(=O)c(C#Cc3ccccc3S(=O)(=O)Nc3ccccc3)coc2c1
- inhibition [2]: Active
- Activity [4]: Toxic

SMILES: COc1ccc(CNS(=O)(=O)c2ccccc2I)cc1
- Activity [4]: Non-Toxic

SMILES: COc1ccc2c(=O)c(-c3ccc(NS(=O)(=O)c4ccccc4C#Cc4ccccc4)cc3)coc2c1
- inhibition [2]: Active
- Activity [4]: Non-Toxic

SMILES: COc1ccc2c(=O)c(C3=Cc4ccccc4S(=O)(=O)N3c3ccccc3)coc2c1
- inhibition [2]: Active
- Activity [4]: Non-Toxic

SMILES: O=S(=O)(Nc1ccccc1)c1ccccc1I
- Activity [4]: Non-Toxic

SMILES: COc1ccc2c(=O)c(C3=Cc4ccccc4S(=O)(=O)N3C)coc2c1
- inhibition [2]: Active
- Activity [4]: Non-Toxic

SMILES: COc1ccc2c(=O)c(I)coc2c1
- Activity [1]: 21%
- Activity [3]: 26%
- Activity [4]: Non-Toxic

SMILES: COc1ccc2c(=O)c(-c3ccc(N4C(c5ccccc5)=Cc5ccccc5S4(=O)=O)cc3)coc2c1
- inhibition [2]: Active
- Activity [4]: Toxic

SMILES: CNS(=O)(=O)c1ccccc1Br
- Activity [4]: Non-Toxic

SMILES: COc1ccc(CNS(=O)(=O)c2ccccc2C#Cc2coc3cc(OC)ccc3c2=O)cc1
- inhibition [2]: Active

SMILES: COc1ccc2c(=O)c(C#C[Si](C)(C)C)coc2c1
- Activity [1]: 21%
- inhibition [2]: Active
- Activity [4]: Non-Toxic

SMILES: O=S(=O)(Nc1ccccc1)c1ccccc1Br
- Activity [4]: Non-Toxic

SMILES: C#Cc1coc2cc(OC)ccc2c1=O
- viability at 24 h, 20 µM [5]: 49%

SMILES: CNS(=O)(=O)c1ccccc1I
- Activity [4]: Non-Toxic

SMILES: O=c1c(-c2ccc(O)cc2)coc2cc(O)ccc12 [DAIDZEIN]
- viability at 24 h, 20 µM [5]: > 80%
- inhibition at 20 µM [2]: 35%
- Activity [4]: Non-Toxic
